For orientation: IC50 means the concentration that inhibits the measured activity by half. Read a high IC50 as lower potency.

The structures appear in SMILES notation. A value given as a limit tells only on which side of the number the result lay.

IC50 data for 24 molecules are collected here from patent US11407738B2 (Achillion Pharmaceuticals, Inc., priority 2015, dated 2022).

Chain of Human Factor D (P00746 26-253): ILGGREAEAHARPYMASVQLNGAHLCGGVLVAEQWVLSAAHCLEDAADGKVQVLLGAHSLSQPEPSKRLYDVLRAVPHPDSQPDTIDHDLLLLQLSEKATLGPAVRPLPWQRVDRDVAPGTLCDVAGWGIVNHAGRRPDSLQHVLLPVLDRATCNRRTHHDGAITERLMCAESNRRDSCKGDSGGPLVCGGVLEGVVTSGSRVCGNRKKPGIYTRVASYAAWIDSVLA

This assay concerns the target Human Factor D (Homo sapiens (Human), UniProt P00746). The assay is described as follows: Human Factor D assay. It is filed as biochemical. Conditions: Table 4; Factor D inhibition, substrate Z-L-Lys-SBzl. In short, it runs like this: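 Serum-purified human factor D (80 nM final) preincubated 5 min at room temperature with test compound in 50 mM Tris, 1M NaCl, pH 7.5. Z-L-Lys-SBzl substrate and DTNB then added, each at 100 μM final. IC50 from nonlinear regression of reaction rate against compound concentration.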
In turn, `CC(=O)c1nn(CC(=O)N2C[C@H](F)C[C@H]2CS(=O)(=O)c2cccc(Br)n2)c2ccc(-c3cnc(C)nc3)cc12` [Compound 603, 2-(3-Acetyl-5-(2-methylpyrimidin-5-yl)-1H-indazol-1-yl)-1-((2S,4R)-2-(((6-bromopyridin-2-yl)sulfonyl)methyl)-4-fluoropyrrolidin-1-yl)ethan-1-one] had an IC50 of over 10 µM.
Then `CC(=O)c1nn(CC(=O)N2C[C@H](F)C[C@H]2C[S+]([O-])c2cccc(Br)n2)c2ccc(-c3cnc(C)nc3)cc12` (stereo partly drawn) [Compound 604, 2-(3-Acetyl-5-(2-methylpyrimidin-5-yl)-1H-indazol-1-yl)-1-((2S,4R)-2-(((6-bromopyridin-2-yl)sulfinyl)methyl)-4-fluoropyrrolidin-1-yl)ethan-1-one], with 1 to 10 µM; and `CC(=O)c1nn(CC(=O)N2C[C@H]3C[C@H]3[C@H]2C(=O)Nc2ccn(CC(F)(F)F)n2)c2ccc(-c3cnc(C)nc3)cc12` [Compound 606, (1R,2S,5S)-3-(2-(3-acetyl-5-(2-methylpyrimidin-5-yl)-1H-indazol-1-yl)acetyl)-N-(1-(2,2,2-trifluoroethyl)-1H-pyrazol-3-yl)-3-azabicyclo[3.1.0]hex-ane-2-carboxamide], with under 1 µM.
In turn, `Cc1cccc(C[C@@H](O)[C@H]2C[C@@H](F)CN2C(=O)Cn2cc(C(N)=O)c3cc(-c4cnc5cc(C)nn5c4)ccc32)n1` [Compound 611, 1-(2-((2R,4R)-4-Fluoro-2-((R)-1-hydroxy-2-(6-methylpyridin-2-yl)ethyl)pyrrolidin-1-yl)-2-oxoethyl)-5-(2-methylpyrazolo [1,5-a]pyrimidin-6-yl)-1H-indole-3-carboxamide] had an IC50 of over 10 µM.
Take `Cc1cccc(NC(=O)[C@@H]2CC=CCN2C(=O)Cn2cc(C(N)=O)c3cc(-c4cnc5cc(C)nn5c4)ccc32)n1` [Compound 612, (S)-5-(2-Methylpyrazolo[1,5-a]pyrimidin-6-yl)-1-(2-(2-((6-methylpyridin-2-yl)carbamoyl)-3,6-dihydropyridin-1 (2H)-yl)-2-oxoethyl)-1H-indole-3-carboxamide]: the IC50 is over 10 µM.
For `Cc1cccc(NC(=O)[C@@H]2CCC(F)CCN2C(=O)Cn2cc(C(N)=O)c3cc(-c4cnc5cc(C)nn5c4)ccc32)n1` (stereo partly drawn) [Compound 614, 1-(2-((2S)-5-Fluoro-2-((6-methylpyridin-2-yl)carbamoyl)azepan-1-yl)-2-oxoethyl)-5-(2-methylpyrazolo[1,5-a]pyrimidin-6-yl)-1H-indole-3-carboxamide], the IC50 was over 10 µM.
Regarding `Cc1cccc(NC(=O)[C@@H]2CCC(F)CCN2C(=O)Cn2cc(C(N)=O)c3cc(-c4cnc5ncccn45)ccc32)n1` (stereo partly drawn) [Compound 615, 1-(2-((2S)-5-Fluoro-2-((6-methylpyridin-2-yl)carbamoyl)azepan-1-yl)-2-oxoethyl)-5-(imidazo[1,2-a]pyrimidin-3-yl)-1H-indole-3-carboxamide], the IC50 is over 10 µM.
`Cc1cccc(NC(=O)[C@@H]2CCC(F)CCN2C(=O)Cn2cc(C(N)=O)c3cc(-c4cnc5n4CCCC5)ccc32)n1` (stereo partly drawn) [Compound 616, 1-(2-((2S)-5-Fluoro-2-((6-methylpyridin-2-yl)carbamoyl)azepan-1-yl)-2-oxoethyl)-5-(5,6,7,8-tetrahydroimidazo[1,2-a]pyridin-3-yl)-1H-indole-3-carboxamide] returned an IC50 of over 10 µM.
As to `Cc1cccc(NC(=O)[C@@H]2CCC(F)CCN2C(=O)Cn2cc(C(N)=O)c3cc(-c4cnn5c4CCC5)ccc32)n1` (stereo partly drawn) [Compound 617, 5-(5,6-Dihydro-4H-pyrrolo[1,2-b]pyrazol-3-yl)-1-(2-((2S)-5-fluoro-2-((6-methylpyridin-2-yl)carbamoyl)azepan-1-yl)-2-oxoethyl)-1H-indole-3-carboxamide], the IC50 is over 10 µM.
Then `CC(=O)c1nn(CC(=O)N2C[C@H](F)C[C@H]2C(=O)Nc2cccc(Br)n2)c2ccc(N3CCn4c(nnc4C(F)(F)F)C3)cc12` [Compound 618, (2S,4R)-1-(2-(3-acetyl-5-(3-(trifluoromethyl)-5,6-dihydro-[1,2,4]triazolo[4,3-a]pyrazin-7(8H)-yl)-1H-indazol-1-yl)acetyl)-N-(6-bromopyridin-2-yl)-4-fluoropyrrolidine-2-carboxamide], with under 1 µM.
The molecule `CC(=O)c1nn(CC(=O)N2C[C@H](F)C[C@H]2C(=O)Nc2cccc(-c3ccccc3Cl)c2F)c2ccc(N3CCn4c(nnc4C(F)(F)F)C3)cc12` [Compound 619, (2S,4R)-1-(2-(3-acetyl-5-(3-(trifluoromethyl)-5,6-dihydro-[1,2,4]triazolo[4,3-a]pyrazin-7(8H)-yl)-1H-indazol-1-yl)acetyl)-N-(2′-chloro-2-fluoro-[1,1′-biphenyl]-3-yl)-4-fluoropyrrolidine-2-carboxamide] registered an IC50 of under 1 µM.
For the molecule `CC(=O)c1nn(CC(=O)N2C[C@H](F)C[C@H]2C(=O)Nc2cccc(Br)n2)c2ccc(N3C[C@H]4CCCC[C@H]4C3)cc12` [Compound 621, (2S,4R)-1-(2-(3-acetyl-5-((3aR,7aS)-hexahydro-1H-isoindol-2(3H)-yl)-1H-indazol-1-yl)acetyl)-N-(6-bromopyridin-2-yl)-4-fluoropyrrolidine-2-carboxamide], the IC50 is under 1 µM.
With `COP(=O)(CC(=O)c1nn(CC(=O)N2C[C@H](F)C[C@H]2C(=O)Nc2cccc(Br)n2)c2ccc(-c3cnc(C)nc3)cc12)OC` [Compound 625, dimethyl (2-(1-(2-((2S,4R)-2-((6-bromopyridin-2-yl)carbamoyl)-4-fluoropyrrolidin-1-yl)-2-oxoethyl)-5-(2-methylpyrimidin-5-yl)-1H-indazol-3-yl)-2-oxoethyl)phos-phonate] the figure was over 10 µM; with `Cc1ncc(-c2ccc3c(c2)c(C(=O)CP(=O)(O)O)nn3CC(=O)N2C[C@H](F)C[C@H]2C(=O)Nc2cccc(Br)n2)cn1` [Compound 626, (2-(1-(2-((2S,4R)-2-((6-bromopyridin-2-yl)carbamoyl)-4-fluoropyrrolidin-1-yl)-2-oxoethyl)-5-(2-methylpyrimidin-5-yl)-1H-indazol-3-yl)-2-oxoethyl)phosphonic acid], over 10 µM.
Molecule `CCOP(=O)(OCC)OC[C@@]12C[C@@H]1N(C(=O)Cn1nc(C(C)=O)c3cc(-c4cnc(C)nc4)ccc31)[C@H](C(=O)Nc1cccc(Br)n1)C2` [Compound 628, ((1S,3S,5R)-2-(2-(3-acetyl-5-(2-methylpyrimidin-5-yl)-1H-indazol-1-yl)acetyl)-3-((6-bromopyridin-2-yl)carbamoyl)-2-azabicyclo[3.1.0]hex-an-5-yl)methyl diethyl phosphate] yielded an IC50 of 1 to 10 µM.
Then `CC(=O)c1nn(CC(=O)N2C[C@H](F)C[C@H]2CNCc2cccc(Cl)c2F)c2ccc(-c3cnc(C)nc3)cc12` [Compound 630, 2-(3-Acetyl-5-(2-methylpyrimidin-5-yl)-1H-indazol-1-yl)-1-((2S,4R)-2-(((3-chloro-2-fluorobenzyl)amino)methyl)-4-fluoropyrrolidin-1-yl)ethan-1-one], with 1 to 10 µM.
As to `Cc1ncc(-c2ccc3c(c2)c(C(C)O)nn3CC(=O)N2C[C@H](F)C[C@H]2C(=O)O)cn1` (stereo partly drawn) [Compound 631, (2S,4R)-4-Fluoro-1-(2-(3-(1-hydroxyethyl)-5-(2-methylpyrimidin-5-yl)-11-indazol-1-yl)acetyl)pyrrolidine-2-carboxylic Acid], the IC50 was over 10 µM.
The molecule `COC(=O)[C@@H]1C[C@@H](F)CN1C(=O)Cn1nc(C(C)O)c2cc(-c3cnc(C)nc3)ccc21` (stereo partly drawn) [Compound 633, Methyl (2S,4R)-4-fluoro-1-(2-(3-(1-hydroxyethyl)-5-(2-methylpyrimidin-5-yl)-1H-indazol-1-yl)acetyl)pyrrolidine-2-carboxylate] returned an IC50 of over 10 µM.
`COc1cc(CC(=O)N2C[C@H](F)C[C@H]2C(=O)Nc2cccc(-c3ccccc3Cl)c2F)cc(-c2cnc(C)nc2)c1` [Compound 636, (2S,4R)—N-(2′-chloro-2-fluoro-[1,1′-biphenyl]-3-yl)-4-fluoro-1-(2-(3-methoxy-5-(2-methylpyrimidin-5-yl)phenyl)acetyl)pyrrolidine-2-carboxamide] registered a 50% inhibitory concentration (IC50) of under 1 µM.
`CC(=O)c1nn(CC(=O)N2C[C@H](F)C[C@H]2C(=O)Nc2cccc(-c3ccc4scnc4c3)c2F)c2ccc(-c3cnc(C)nc3)cc12` [Compound 638, (2S,4R)-1-(2-(3-acetyl-5-(2-methylpyrimidin-5-yl)-1H-indazol-1-yl)acetyl)-N-(3-(benzo[d]thiazol-5-yl)-2-fluorophenyl)-4-fluoropyrrolidine-2-carboxamide]: the IC50 was under 1 µM.
With `CC(=O)c1nn(CC(=O)N2C[C@H](F)C[C@H]2C(=O)Nc2cccc(-c3ccc4scnc4c3)c2F)c2ccc(-c3cnc4cc(C)nn4c3)cc12` [Compound 639, (2S,4R)-1-(2-(3-acetyl-5-(4-methylpyrazolo[1,5-a]pyrimidin-6-yl)-1H-indazol-1-yl)acetyl)-N-(3-(benzo[d]thiazol-5-yl)-2-fluorophenyl)-4-fluoropyrrolidine-2-carboxamide], the IC50 was under 1 µM.
Molecule `Cc1cc2ncc(-c3nc4c(s3)c(C(N)=O)nn4CC(=O)N3C[C@H](F)C[C@H]3C(=S)NC3CCC(c4cc5sccc5s4)C3)cn2n1` (stereo partly drawn) [Compound 640, 1-(2-((2S,4R)-4-fluoro-2-((3-(thieno[3,2-b]thiophen-2-yl)cyclopentyl)carba-mothioyl)pyrrolidin-1-yl)-2-oxoethyl)-5-(2-methylpyrazolo[1,5-a]pyrimidin-6-yl)-1H-pyrazolo[3,4-d]thiazole-3-carboxamide] had an IC50 of over 10 µM.
The molecule `CC(=O)c1nn(CC(=O)N2CCC[C@@H](C(=O)NCc3cccc(Br)n3)C2)c2ccc(-c3cnc(C)nc3)cc12` [Compound 642] came in with an IC50 of over 10 µM.
In the case of `CC(=O)c1cc(CC(=O)N2C[C@H](F)C[C@H]2C(=O)Nc2cccc(Br)n2)n2ccc(-c3cnc(C)nc3)cc12` [Compound 643], the half-inhibitory concentration (IC50) is under 1 µM.
